{"source": "patent US20260262638A1", "about": "“AGRICULTURAL COMPOSITION” (priority 2022, published 2026)", "system": "nematodes", "assay": "Nematicide laboratory bioassay in ELISA plates, nematode mortality 24 h after treatment", "type": "in vivo", "experimental": "Bioassays were designed to determine the efficacy of tested formulations, and included the following steps: • 1. nematode extraction from carrot disks using the mesh extraction method; • 2. counting of extracted nematodes in a sample of 100 μL of water; • 3. preferably, nematode count in such a sample is between 40-80 nematodes; • 4. determining efficacy in ELISA plates; • 5. preparing a stock solution that is 10 times more diluted than the main formulation for all treatments; • 6. for treatments tested at 5% or 1.5%, aliquots of 50 μL or 15 μL of the corresponding stock solution were introduced to a well, respectively. Volume was completed with 50 μL of the nematode extract, except for treatments tested at 1.5%, an additional 35 μL of distilled water was introduced to reach a total volume of 100 μL. Content of the well was sufficiently mixed with a pipette, to ensure proper distribution of both nematodes and treatment components; • 7. performing at least 6 replicates of every treatment. The flask containing the nematode colony was mixed by manual shaking every time before nematodes were introduced to the well. This way we ensure a somewhat homogenous nematode count and avoid nematodes settling at the bottom of the flask; • 8. keeping the whole ELISA plate in dark conditions for 24 hours after introduction of the treatment; and • 9. assessing nematode mortality 24 hours after treatment under stereoscope. Nematodes that were moving were considered alive. Nematodes that were not moving were poked with a fine brush, if they respond to the poking with slight movements, they were considered alive. If not, they were considered dead.\nThe only validity criterium was that nematode mortality in the negative controls should not exceed 10%.\nThe raw mortality data was analyzed using RStudio (version 1.4.1717). The data sets were subjected to Shapiro-Wilk test for normality (α=0.05). Data was not normally distributed; therefore, a Kruskal-Wallis test was applied. Where there was significance, a Wilcoxon rank sum t-test was performed for pairwise comparisons between treatment groups.", "key": {"[1]": {"conditions": "mean over replicates, 24 h, tested dose per Table 2"}, "[2]": {"conditions": "sum over replicates, 24 h, tested dose per Table 2"}}, "note": "“And” between values parts separate entries of the source, which are not always exact repeats. Equal entries are not always repeated."}
{"smiles": "CNC(=O)O/N=C(\\SC)C(=O)N(C)C", "note": "[Oxamyl]", "values": [{"measurement": "mean alive", "setting": "[1]", "result": 20.50}, {"measurement": "mean dead", "setting": "[1]", "result": 22.17}, {"measurement": "alive", "setting": "nematodes counted alive per replicate well, 24 h after treatment, tested dose per Table 2", "result": "22 and 20 and 25 and 17 and 24 and 18 and 7 and 27 and 5 and 34 and 21 and 26"}, {"measurement": "Dead", "setting": "nematodes counted dead per replicate well, 24 h after treatment, tested dose per Table 2 (5%, 1.5% or 1% w/v)", "result": "24 and 34 and 29 and 20 and 31 and 39 and 15 and 4 and 18 and 5 and 22 and 25"}, {"measurement": "total alive", "setting": "[2]", "result": 246}, {"measurement": "total dead", "setting": "[2]", "result": 266}, {"measurement": "Mortality (%) 24 h post exposure", "setting": "tested dose per Table 2 (5%, 1.5% or 1% w/v)", "result": 50.76, "unit": "%"}]}
